Consider twelve compounds from article PMC11871066, “Structure-based discovery of hydrocarbon-stapled paxillin peptides that block FAK scaffolding in cancer” (Nature Communications, 2025).

Like-named read-outs stand apart in the source and are kept apart here. Bridge positions count the residues as written; N and C are the ends. Square brackets hold non-standard residues; d marks the D form. Peptide text beside a SMILES is read from it. R8 = C=CCCCCCC[C@@](C)(N)C(=O)O; R5 = C=CCCC[C@@](C)(N)C(=O)O; S5 = C=CCCC[C@](C)(N)C(=O)O

Usually Ki stands for the dissociation constant of the complex between target and ligand, obtained from inhibition or displacement. The term half-life denotes the time in which the quantity being followed falls by half. Higher therefore signals slow decline. What is called amount remaining is the share of the starting amount still present when the sample was taken. The low end stands for more turnover, the high end for less turnover.

One data set concerns the target T1, FAK FAT domain (Homo sapiens, UniProt Q05397).
T1 sequence (Q05397 914-1045 limits assumed): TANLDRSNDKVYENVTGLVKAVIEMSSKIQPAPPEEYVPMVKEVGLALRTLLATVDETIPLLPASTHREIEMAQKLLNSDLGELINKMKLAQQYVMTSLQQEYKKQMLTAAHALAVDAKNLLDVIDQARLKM
The data set is described as follows: SPR binding to immobilized biotinylated FAK FAT. The procedure:
SPR binding studies were performed using biotinylated FAK FAT protein[51]. Briefly, SPR binding assays were performed on a ForteBio Pioneer FE SPR system using SPR running buffer (100 mM Tris-Cl pH 8.0, 200 mM NaCl, and 0.05% Tween-20). […] Desired immobilization levels were determined utilizing the following Eq. 1:1 Rmax=RproteinxMranalyte/MrproteinxVprotein where Rmax is the highest possible response of binding between the analyte and the protein, Rprotein is the change in response by the immobilization of the protein, Mr represents the mass of the analyte or protein, and Vprotein represents the number of binding sites on the protein. A target Rmax of approximately 100 RU was chosen.
All samples were diluted in the SPR buffer to a volume of 200 µl and injected using the OneStep gradient injection system at a flow rate of 150 µl/min. For a bulk standard control, a 3% (w\v) solution of sucrose in SPR buffer was used for injection. […] SPR data analysis utilized Qdat software (ForteBio, version 4.3.2 build 8) for normalization of the baseline prior to injection, channel alignment, and reference channel and blank subtraction.

Data set [1] has as its target T2, FAK FAT / TAMRA-paxillin LD2 L10D (Homo sapiens, UniProt Q05397).
T2 construct: assay was performed using FAK FAT protein and TAMRA-LD2 L10D peptide
T2 sequence (Q05397 919-1052): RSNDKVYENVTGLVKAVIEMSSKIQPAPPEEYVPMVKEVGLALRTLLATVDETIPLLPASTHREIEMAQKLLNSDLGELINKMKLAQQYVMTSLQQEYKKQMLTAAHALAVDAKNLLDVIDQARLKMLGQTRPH
The data set is described as follows: Fluorescence polarization competition (FAK-paxillin) assay. The conditions noted are these: read-out: FP (Ki) data. It is filed as binding. The method, then:
The IC50 was calculated using a four-parameter dose-response inhibition model, with the bottom fit constrained to the lower plateau of the binding curve.

For the next data set, the system named is trypsin. The data set is described as follows: Trypsin proteolytic resistance assay. The conditions noted are these: immobilized trypsin-agarose resin.
The nature of the next data set: Plasma stability. The conditions noted are these: mouse plasma.
Setting [2] is: one-site kinetic fit, mean ± SD of n = 2-5 biological replicates, Tris pH 8.0, read-out: SPR KD.

Protocol for trypsin: Cell permeability of peptide drugs was determined by fluorescence measurement of TAMRA-labeled peptides in 96-well plates and ClarioStar Plus plate reader using BMG ClarioStar MARS software (version 4.20). […] Percent uptake was calculated as background-subtracted fluorescence absorbed by cells/fluorescence of peptide in media-only wells, then made relative to TAMRA-Alkyne. Three biological replicates (n = 3) were performed per cell line per treatment group. Peptide proteolysis was measured using immobilized Trypsin-agarose resin (Thermo Fisher) and quantification by LC-MS. […] In vivo pharmacokinetics were performed by the UACC Analytical Chemistry Shared Resource. […] The mice were fed NIH-31 irradiated pellets (Tekland Premier, Madison, Wisconsin), and reverse osmosis water was freely available. […] The average plasma concentration versus time data were analyzed using PKSolver (version 2.0) by a noncompartmental approach.

In the case of `CC(=O)N[C@@H](CC(N)=O)C(=O)N[C@@H](CC(C)C)C(=O)N[C@@H](CO)C(=O)N[C@]1(C)CCCCCCC=CCCC[C@@](C)(C(=O)N[C@@H](CC(C)C)C(=O)N[C@@H](CC(N)=O)C(N)=O)NC(=O)[C@H](CC(C)C)NC(=O)[C@H](CC(C)C)NC(=O)[C@H](CC(C)C)NC(=O)[C@H](CCCNC(=N)N)NC(=O)[C@H](CC(=O)O)NC(=O)[C@H](CC(C)C)NC1=O` [compound 1905] (Ac-NLS[R8]LDRLLL[S5]LN-NH2; staple 4-11), on FAK FAT domain (setting [2]), the Kd is 146 µM. Further, the Ki in data set [1] (Rep1), in data set [1] (Rep2) and in data set [1] (Rep3) was more than 1250 µM each time.
As to `CC(=O)N[C@@H](CC(N)=O)C(=O)N[C@@H](CC(C)C)C(=O)N[C@]1(C)CCCCCCC=CCCC[C@@](C)(C(=O)N[C@@H](CCC(=O)O)C(=O)N[C@@H](CC(C)C)C(=O)N[C@@H](CC(N)=O)C(N)=O)NC(=O)[C@H](CC(C)C)NC(=O)[C@H](CC(C)C)NC(=O)[C@H](CCCNC(=N)N)NC(=O)[C@H](CC(=O)O)NC(=O)[C@H](CC(C)C)NC(=O)[C@H](CCC(=O)O)NC1=O` [compound 1907], in the data set on trypsin, the half-life at 100 µM is 28.4 h; the fraction remaining at 0.25 h, 100 µM was determined as 80%; the share remaining at 0.5 h, 100 µM was found to be 73%; the fraction remaining at 1 h, 100 µM came out at 72%. In the data set on trypsin, this compound displayed a share remaining at 2 h, 100 µM of 73%; a share remaining at 3 h, 100 µM of 62%; a share remaining at 4 h, 100 µM of 58%; an amount remaining at 8 h, 100 µM of 56%. In the data set with trypsin, the share remaining at 24 h, 100 µM was found to be 43% and the fraction remaining at 48 h, 100 µM was determined as 31%.
For `CC(=O)N[C@@H](CC(N)=O)C(=O)N[C@@H](CC(C)C)C(=O)N[C@]1(C)CCCCCCC=CCCC[C@@](C)(C(=O)N[C@@H](CCC(N)=O)C(=O)N[C@@H](CC(C)C)C(=O)N[C@@H](CC(N)=O)C(N)=O)NC(=O)[C@H](CC(C)C)NC(=O)[C@H](CC(C)C)NC(=O)[C@H](CCCNC(=N)N)NC(=O)[C@H](CC(=O)O)NC(=O)[C@H](CC(C)C)NC(=O)[C@H](CCC(N)=O)NC1=O` [compound 1910] (Ac-NL[R8]QLDRLL[S5]QLN-NH2; staple 3-10), at FAK FAT domain (setting [2]), the Kd came to 22.6 µM.
As to `CC(=O)N[C@@H](CC(N)=O)C(=O)N[C@@H](CC(C)C)C(=O)N[C@@H](CO)C(=O)N[C@@H](CCC(=O)O)C(=O)N[C@]1(C)CCCCCCC=CCCC[C@@](C)(C(=O)N[C@@H](CC(N)=O)C(N)=O)NC(=O)[C@H](CCC(=O)O)NC(=O)[C@H](CC(C)C)NC(=O)[C@H](CC(C)C)NC(=O)[C@H](CC(C)C)NC(=O)[C@H](CCCNC(=N)N)NC(=O)[C@H](CC(=O)O)NC1=O` [compound 1914] (Ac-NLSE[R8]DRLLLE[S5]N-NH2; staple 5-12), at FAK FAT domain (setting [2]), the Kd was found to be 120 µM. Besides, the Ki in data set [1] (Rep1), in data set [1] (Rep2) and in data set [1] (Rep3) was more than 1250 µM in each case.
For `CC(=O)N[C@@H](CC(N)=O)C(=O)N[C@@H](CC(C)C)C(=O)N[C@@H](CO)C(=O)N[C@@H](CCC(=O)O)C(=O)N[C@@]1(C)CCCC=CCCC[C@@](C)(C(=O)N[C@@H](CC(C)C)C(=O)N[C@@H](CCC(=O)O)C(=O)N[C@@H](CC(C)C)C(=O)N[C@@H](CC(N)=O)C(N)=O)NC(=O)[C@H](CC(C)C)NC(=O)[C@H](CCCNC(=N)N)NC(=O)[C@H](CC(=O)O)NC1=O` [compound 1919] (Ac-NLSE[S5]DRL[S5]LELN-NH2; staple 5-9), the Kd on FAK FAT domain (setting [2]) turned out to be 80.6 µM.
`CC(=O)N[C@@H](CO)C(=O)N[C@@H](CC(C)C)C(=O)NCC(=O)N[C@@H](CO)C(=O)N[C@@H](CC(N)=O)C(=O)N[C@@H](CC(C)C)C(=O)N[C@]1(C)CCCCCCC=CCCC[C@@](C)(C(=O)N[C@@H](CCC(=O)O)C(=O)N[C@@H](CC(C)C)C(=O)N[C@@H](CC(N)=O)C(=O)N[C@@H](C)C(=O)N[C@H](C(=O)N[C@@H](CCC(N)=O)C(=O)N[C@@H](Cc2c[nH]cn2)C(N)=O)C(C)C)NC(=O)[C@H](CC(C)C)NC(=O)[C@H](CC(C)C)NC(=O)[C@H](CCCNC(=N)N)NC(=O)[C@H](CC(=O)O)NC(=O)[C@H](CC(C)C)NC(=O)[C@H](CCC(=O)O)NC1=O` [compound 1920] (Ac-SLGSNL[R8]ELDRLL[S5]ELNAVQH-NH2; staple 7-14): the Kd at FAK FAT domain (two-site model, site 1, mean ± SD, read-out: SPR KD1) amounted to 0.9 ± 0.5 µM; on FAK FAT domain (two-site model, site 2, mean ± SD, read-out: SPR KD2), 9.8 ± 6.9 µM.
Turning to `CC(=O)N[C@@H](CC(N)=O)C(=O)N[C@@H](CC(C)C)C(=O)N[C@@H](CO)C(=O)N[C@@H](CCC(=O)O)C(=O)N[C@@H](CC(C)C)C(=O)N[C@@H](CC(=O)O)C(=O)N[C@@H](CCCNC(=N)N)C(=O)N[C@@H](CC(C)C)C(=O)N[C@]1(C)CCCC=CCCC[C@@](C)(C(=O)N[C@@H](CC(N)=O)C(N)=O)NC(=O)[C@H](CCC(=O)O)NC(=O)[C@H](CC(C)C)NC1=O` [compound 1921] (Ac-NLSELDRL[R5]LE[S5]N-NH2; staple 9-12), the Kd was more than 200 µM on FAK FAT domain (Rep1, read-out: SPR (KD)); more than 200 µM on FAK FAT domain (Rep2, read-out: SPR (KD)); more than 200 µM on FAK FAT domain (Rep3, read-out: SPR (KD)); more than 200 µM at FAK FAT domain (setting [2]).
For the compound `CC(=O)N[C@@H](CC(N)=O)C(=O)N[C@@H](CC(C)C)C(=O)N[C@]1(C)CCCCCCC=CCCC[C@@](C)(C(=O)N[C@@H](CCC(=O)O)C(=O)N[C@@H](CC(C)C)C(=O)N[C@@H](CC(N)=O)C(N)=O)NC(=O)[C@H](Cc2c[nH]c3ccccc23)NC(=O)[C@H](CC(C)C)NC(=O)[C@H](CCCNC(=N)N)NC(=O)[C@H](CC(=O)O)NC(=O)[C@H](CC(C)C)NC(=O)[C@H](CCC(=O)O)NC1=O` [compound 2007], the Kd on FAK FAT domain (setting [2]) turned out to be 60.6 µM.
As for `CC(=O)N[C@@H](CC(N)=O)C(=O)N[C@@H](CC(C)C)C(=O)N[C@]1(C)CCCCCCC=CCCC[C@@](C)(C(=O)N[C@@H](CCC(=O)O)C(=O)N[C@@H](CC(C)C)C(=O)N[C@@H](CC(N)=O)C(N)=O)NC(=O)[C@H](CC(C)C)NC(=O)[C@H](CC(C)C)NC(=O)[C@H](CCCNC(=N)N)NC(=O)[C@H](CC(=O)O)NC(=O)[C@H](CC(C)C)NC(=O)[C@H](C)NC1=O` [compound 2009], the Kd on FAK FAT domain (setting [2]) is 3.4 µM.
The compound `CC(=O)N[C@@H](CC(N)=O)C(=O)N[C@@H](CC(C)C)C(=O)N[C@@H](CO)C(=O)N[C@@H](CCC(=O)O)C(=O)N[C@@H](CC(C)C)C(=O)N[C@@H](CC(=O)O)C(=O)N[C@@H](CCCNC(=N)N)C(=O)N[C@@]1(C)CCCC=CCCC[C@@](C)(C(=O)N[C@@H](CC(N)=O)C(N)=O)NC(=O)[C@H](CCC(=O)O)NC(=O)[C@H](CC(C)C)NC(=O)[C@H](CC(C)C)NC1=O` [compound 2015] (Ac-NLSELDR[S5]LLE[S5]N-NH2; staple 8-12) had a Kd on FAK FAT domain of 30.6 µM.
For the compound `CC(=O)N[C@@H](CC(N)=O)C(=O)N[C@]1(C)CCCCCCC=CCCC[C@@](C)(C(=O)N[C@@H](CC(C)C)C(=O)N[C@@H](CCC(=O)O)C(=O)N[C@@H](CC(C)C)C(=O)N[C@@H](CC(N)=O)C(N)=O)NC(=O)[C@H](CC(C)C)NC(=O)[C@H](CCCNC(=N)N)NC(=O)[C@H](CC(=O)O)NC(=O)[C@H](CC(C)C)NC(=O)[C@H](CCC(=O)O)NC(=O)[C@H](CO)NC1=O` [compound 2017] (Ac-N[R8]SELDRL[S5]LELN-NH2; staple 2-9), the Kd at FAK FAT domain (setting [2]) worked out at 27.9 µM.
For the compound `CC(C)[N+](C)(CCOC(=O)C1c2ccccc2Oc2ccccc21)C(C)C` [propantheline bromide], the “% remaining in plasma” value in “Plasma stability” (0 min, Rep1) is recorded as 105%; in “Plasma stability” (0 min, Rep2) it was 100%; in the data set “Plasma stability” (0 min, Rep3) it was 95%; in “Plasma stability” (15 min, Rep1), 85%; in “Plasma stability” (15 min, Rep2) it was 78%; in “Plasma stability” (15 min, Rep3), 86%. Moreover, the “% remaining in plasma” value in “Plasma stability” (30 min, Rep1) is recorded as 73%; in “Plasma stability” (30 min, Rep2) it was 70%; in “Plasma stability” (30 min, Rep3), 68%; in “Plasma stability” (60 min, Rep1), 58%; in the data set “Plasma stability” (60 min, Rep2), 52%; in “Plasma stability” (60 min, Rep3), 50%. For the same compound, the “% remaining in plasma” value in the data set “Plasma stability” (90 min, Rep1) is 30%; in “Plasma stability” (90 min, Rep2) it was 42%; in “Plasma stability” (90 min, Rep3), 36%; in “Plasma stability” (120 min, Rep1), 29%; in the data set “Plasma stability” (120 min, Rep2), 31%; in “Plasma stability” (120 min, Rep3), 27%. Moreover, the “plasma stability t1/2” value in “Plasma stability” (n = 3) is 1.1 h.
